{
  "source": "patent US6703421B1",
  "about": "“Methods of using phenylmethylbenzoquinone and hydroquinone compounds for treatment of myocarditis, dilated cardiomyopathy and heart failure” (Daiichi Suntory Pharma Co., Ltd., priority 1999, dated 2004)",
  "data": [
    {"system": "NF-κB", "test": "NF-κB luciferase reporter assay in A549/NF-κBLuc cells", "assay_type": "cell-based, human", "details": "A549/NF-κBLuc, IL-1β (1 ng/ml) for 4 hours, luciferase activity; read-out: IC50 (μM) IL-1 stimulation", "experimental": "(§1) Using lipofectamine (Lifetech Oriental K. K., Tokyo) according to the conventional method, human lung cancer cell line A549 cells (ATCC catalog no. CCL185), which are known to express hiNOS by cytokine stimulation, were co-transfected with pNFκB-Luc, which are plasmid controlled by a NF-κB binding consensus sequence, and pSV2neo (Clontech, U.S.A.), and then A549/NF-κBLuc, the cell that has stably introduced pNFκB-Luc, was selected by adding G418 sulfate (1 mg/ml, Lifetech Oriental K. K.) to the culture medium.\n(§2) The luciferase activity was measured using the Luciferase Assay System (Promega, U.S.A.).", "units": {"IC50": "µM"}, "values": [
      {"compound": "2-[5-Methylthieno[2,3-d]pyrimidine-4-yl]aminoindan-5-carboxylic Acid Morpholinamide [Prod. Ex. 221]", "IC50": 0.051}
    ]},
    {"system": "NF-κB", "test": "NF-κB luciferase reporter assay in A549/NF-κBLuc cells", "assay_type": "cell-based, human", "details": "A549/NF-κBLuc, TNF-α (500 ng/ml) for 4 hours, luciferase activity; read-out: IC50 (μM) TNF stimulation", "experimental": "as §1, §2", "units": {"IC50": "µM"}, "values": [
      {"compound": "2-[5-Methylthieno[2,3-d]pyrimidine-4-yl]aminoindan-5-carboxylic Acid Morpholinamide [Prod. Ex. 221]", "IC50": 0.089}
    ]},
    {"system": "NF-κB", "test": "NF-κB luciferase reporter assay in A549/NF-κBLuc cells", "assay_type": "cell-based, human", "details": "Homo sapiens; A549/NF-κBLuc, IL-1β (1 ng/ml) for 4 hours, luciferase activity; read-out: IC50 (μM) IL-1 stimulation", "experimental": "as §1, §2", "units": {"IC50": "µM"}, "values": [
      {"compound": "COC1=C(OC)C(=O)C(Cc2ccc(CCC(=O)N3CCOCC3)cc2)=C(C)C1=O", "note": "[Prod. Ex. 3, N-[3-[4-(5,6-Dimethoxy-3-methyl-1,4-benzoquinon-2-ylmethyl)phenyl]propionyl]morpholine]", "IC50": 29},
      {"compound": "COC1=C(OC)C(=O)C(Cc2ccc(CCC(=O)NC(C)C)cc2)=C(C)C1=O", "note": "[Prod. Ex. 9, N-[3-[4-(5,6-Dimethoxy-3-methyl-1,4-benzoquinon-2-ylmethyl)phenyl]propionyl]isopropylamine]", "IC50": 3},
      {"compound": "COC1=C(OC)C(=O)C(Cc2ccc(C(=O)NC(C)C)cc2)=C(C)C1=O", "note": "[Prod. Ex. 23, N-[4-(5,6-Dimethoxy-3-methyl-1,4-benzoquinon-2-ylmethyl)benzoyl]isopropylamine]", "IC50": 42},
      {"compound": "COC1=C(OC)C(=O)C(Cc2ccc(CCCC(=O)N3CCOCC3)cc2)=C(C)C1=O", "note": "[Prod. Ex. 27, N-[4-[4-(5,6-Dimethoxy-3-methyl-1,4-benzoquinon-2-ylmethyl)phenyl]butanoyl]morpholine]", "IC50": 15},
      {"compound": "COC1=C(OC)C(=O)C(Cc2ccc(CCCC(=O)N3CCSCC3)cc2)=C(C)C1=O", "note": "[Prod. Ex. 28, N-[4-[4-(5,6-Dimethoxy-3-methyl-1,4-benzoquinon-2-ylmethyl)phenyl]butanoyl]thiomorpholine]", "IC50": 14},
      {"compound": "COC1=C(OC)C(=O)C(Cc2ccc(CCCC(=O)N3CCCCC3)cc2)=C(C)C1=O", "note": "[Prod. Ex. 29, N-[4-[4-(5,6-Dimethoxy-3-methyl-1,4-benzoquinon-2-ylmethyl)phenyl]butanoyl]piperidine]", "IC50": 13},
      {"compound": "COC1=C(OC)C(=O)C(Cc2ccc(CCCC(=O)NC(C)C)cc2)=C(C)C1=O", "note": "[Prod. Ex. 30, N-[4-[4-(5,6-Dimethoxy-3-methyl-1,4-benzoquinon-2-ylmethyl)phenyl]butanoyl]isopropylamine]", "IC50": 14},
      {"compound": "COC1=C(OC)C(=O)C(Cc2cccc(CCC(=O)N3CCCCC3)c2)=C(C)C1=O", "note": "[Prod. Ex. 32, N-[3-[3-(5,6-Dimethoxy-3-methyl-1,4-benzoquinon-2-ylmethyl)phenyl]propionyl]piperidine]", "IC50": 24},
      {"compound": "COC1=C(OC)C(=O)C(Cc2cccc(CCC(=O)N3CCSCC3)c2)=C(C)C1=O", "note": "[Prod. Ex. 33, N-[3-[3-(5,6-Dimethoxy-3-methyl-1,4-benzoquinon-2-ylmethyl)phenyl]propionyl]thiomorpholine]", "IC50": 28},
      {"compound": "COC1=C(OC)C(=O)C(Cc2cccc(CCC(=O)N3CCOCC3)c2)=C(C)C1=O", "note": "[Prod. Ex. 34, N-[3-[3-(5,6-Dimethoxy-3-methyl-1,4-benzoquinon-2-ylmethyl)phenyl]propionyl]morpholine]", "IC50": 29},
      {"compound": "COC1=C(OC)C(=O)C(Cc2cccc(CCC(=O)NC(C)C)c2)=C(C)C1=O", "note": "[Prod. Ex. 35, N-[3-[3-(5,6-Dimethoxy-3-methyl-1,4-benzoquinon-2-ylmethyl)phenyl]propionyl]isopropylamine]", "IC50": 8},
      {"compound": "COC1=C(OC)C(=O)C(Cc2cccc(/C=C/C(=O)N3CCCCC3)c2)=C(C)C1=O", "note": "[Prod. Ex. 37, N-[3-[3-(5,6-Dimethoxy-3-methyl-1,4-benzoquinon-2-ylmethyl)phenyl]acryloyl]piperidine]", "IC50": 49},
      {"compound": "COC1=C(OC)C(=O)C(Cc2cccc(/C=C/C(=O)NC(C)C)c2)=C(C)C1=O", "note": "[Prod. Ex. 39, N-[3-[3-(5,6-Dimethoxy-3-methyl-1,4-benzoquinon-2-ylmethyl)phenyl]acryloyl]isopropylamine]", "IC50": 39},
      {"compound": "COC1=C(OC)C(=O)C(Cc2cccc(C(=O)NC(C)C)c2)=C(C)C1=O", "note": "[Prod. Ex. 42, N-[3-(5,6-Dimethoxy-3-methyl-1,4-benzoquinon-2-ylmethyl)benzoyl]isopropylamine]", "IC50": 22},
      {"compound": "COC1=C(OC)C(=O)C(Cc2cccc(C(=O)N3CCCCC3)c2)=C(C)C1=O", "note": "[Prod. Ex. 43, N-[3-(5,6-Dimethoxy-3-methyl-1,4-benzoquinon-2-ylmethyl)benzoyl]piperidine]", "IC50": 21},
      {"compound": "COC1=C(OC)C(=O)C(Cc2cccc(C(=O)N3CCSCC3)c2)=C(C)C1=O", "note": "[Prod. Ex. 45, N-[3-(5,6-Dimethoxy-3-methyl-1,4-benzoquinon-2-ylmethyl)benzoyl]thiomorpholine]", "IC50": 17},
      {"compound": "CC1=C(C)C(=O)C(Cc2ccc(CCC(=O)NC(C)C)cc2)=C(C)C1=O", "note": "[Prod. Ex. 46]", "IC50": 17},
      {"compound": "CC1=C(C)C(=O)C(Cc2ccc(CCC(=O)N3CCCCC3)cc2)=C(C)C1=O", "note": "[Prod. Ex. 47, N-[3-[4-(3,5,6-Trimethyl-1,4-benzoquinon-2-ylmethyl)phenyl]propionyl]piperidine]", "IC50": 21},
      {"compound": "CC1=C(C)C(=O)C(Cc2ccc(CCC(=O)N3CCOCC3)cc2)=C(C)C1=O", "note": "[Prod. Ex. 48, N-[3-[4-(3,5,6-Trimethyl-1,4-benzoquinon-2-ylmethyl)phenyl]propionyl]morpholine]", "IC50": 18},
      {"compound": "CC1=C(C)C(=O)C(Cc2cccc(CCC(=O)NC(C)C)c2)=C(C)C1=O", "note": "[Prod. Ex. 49, N-[3-[3-(3,5,6-Trimethyl-1,4-benzoquinon-2-ylmethyl)phenyl]propionyl]isopropylamine]", "IC50": 28},
      {"compound": "CC1=C(C)C(=O)C(Cc2cccc(CCC(=O)N3CCCCC3)c2)=C(C)C1=O", "note": "[Prod. Ex. 50, N-[3-[3-(3,5,6-Trimethyl-1,4-benzoquinon-2-ylmethyl)phenyl]propionyl]piperidine]", "IC50": 16},
      {"compound": "CC1=C(C)C(=O)C(Cc2cccc(CCC(=O)N3CCOCC3)c2)=C(C)C1=O", "note": "[Prod. Ex. 51, N-[3-[3-(3,5,6-Trimethyl-1,4-benzoquinon-2-ylmethyl)phenyl]propionyl]morpholine]", "IC50": 18},
      {"compound": "COC1=C(OC)C(=O)C(Cc2ccc(CC(=O)N3CCOCC3)cc2)=C(C)C1=O", "note": "[Prod. Ex. 53, N-[4-(5,6-Dimethoxy-3-methyl-1,4-benzoquinon-2-ylmethyl)phenylacetyl]morpholine]", "IC50": 8},
      {"compound": "COC1=C(OC)C(=O)C(Cc2ccc(CC(=O)N3CCCCC3)cc2)=C(C)C1=O", "note": "[Prod. Ex. 54, N-[4-(5,6-Dimethoxy-3-methyl-1,4-benzoquinon-2-ylmethyl)phenylacetyl]piperidine]", "IC50": 5},
      {"compound": "COC1=C(OC)C(=O)C(Cc2ccc(CC(=O)N3CCSCC3)cc2)=C(C)C1=O", "note": "[Prod. Ex. 55, N-[4-(5,6-Dimethoxy-3-methyl-1,4-benzoquinon-2-ylmethyl)phenylacetyl]thiomorpholine]", "IC50": 7},
      {"compound": "COC1=C(OC)C(=O)C(Cc2ccc(CC(=O)NC(C)C)cc2)=C(C)C1=O", "note": "[Prod. Ex. 56, N-[4-(5,6-Dimethoxy-3-methyl-1,4-benzoquinon-2-ylmethyl)phenylacetyl]isopropylamine]", "IC50": 5},
      {"compound": "COC1=C(OC)C(=O)C(Cc2cccc(CC(=O)N3CCCCC3)c2)=C(C)C1=O", "note": "[Prod. Ex. 58, N-[3-(5,6-Dimethoxy-3-methyl-1,4-benzoquinon-2-ylmethyl)phenylacetyl]piperidine]", "IC50": 13},
      {"compound": "COC1=C(OC)C(=O)C(Cc2cccc(CC(=O)N3CCSCC3)c2)=C(C)C1=O", "note": "[Prod. Ex. 59, N-[3-(5,6-Dimethoxy-3-methyl-1,4-benzoquinon-2-ylmethyl)phenylacetyl]thiomorpholine]", "IC50": 12},
      {"compound": "COC1=C(OC)C(=O)C(Cc2cccc(CC(=O)N3CCOCC3)c2)=C(C)C1=O", "note": "[Prod. Ex. 60, N-[3-(5,6-Dimethoxy-3-methyl-1,4-benzoquinon-2-ylmethyl)phenylacetyl]morpholine]", "IC50": 18},
      {"compound": "COC1=C(OC)C(=O)C(Cc2cccc(CC(=O)NC(C)C)c2)=C(C)C1=O", "note": "[Prod. Ex. 61, N-[3-(5,6-Dimethoxy-3-methyl-1,4-benzoquinon-2-ylmethyl)phenylacetyl]isopropylamine]", "IC50": 24},
      {"compound": "COC1=C(OC)C(=O)C(Cc2cccc(CCCC(=O)N3CCCCC3)c2)=C(C)C1=O", "note": "[Prod. Ex. 63, N-[4-[3-(5,6-Dimethoxy-3-methyl-1,4-benzoquinon-2-ylmethyl)phenyl]butanoyl]piperidine]", "IC50": 2},
      {"compound": "COC1=C(OC)C(=O)C(Cc2cccc(CCCC(=O)N3CCSCC3)c2)=C(C)C1=O", "note": "[Prod. Ex. 64, N-[4-[3-(5,6-Dimethoxy-3-methyl-1,4-benzoquinon-2-ylmethyl)phenyl]butanoyl]thiomorpholine]", "IC50": 5},
      {"compound": "COC1=C(OC)C(=O)C(Cc2cccc(CCCC(=O)N3CCOCC3)c2)=C(C)C1=O", "note": "[Prod. Ex. 65, N-[4-[3-(5,6-Dimethoxy-3-methyl-1,4-benzoquinon-2-ylmethyl)phenyl]butanoyl]morpholine]", "IC50": 12},
      {"compound": "COC1=C(OC)C(=O)C(Cc2cccc(CCCC(=O)NC(C)C)c2)=C(C)C1=O", "note": "[Prod. Ex. 66, N-[4-[3-(5,6-Dimethoxy-3-methyl-1,4-benzoquinon-2-ylmethyl)phenyl]butanoyl]isopropylamine]", "IC50": 3},
      {"compound": "COC1=C(OC)C(=O)C(Cc2ccccc2CCC(=O)N2CCCCC2)=C(C)C1=O", "note": "[Prod. Ex. 70, N-[3-[2-(5,6-Dimethoxy-3-methyl-1,4-benzoquinon-2-ylmethyl)phenyl]propionyl]piperidine]", "IC50": 44},
      {"compound": "COC1=C(OC)C(=O)C(Cc2ccccc2CCC(=O)N2CCOCC2)=C(C)C1=O", "note": "[Prod. Ex. 71, N-[3-[2-(5,6-Dimethoxy-3-methyl-1,4-benzoquinon-2-ylmethyl)phenyl]propionyl]morpholine]", "IC50": 56},
      {"compound": "COC1=C(OC)C(=O)C(Cc2ccccc2CCC(=O)N2CCSCC2)=C(C)C1=O", "note": "[Prod. Ex. 72, N-[3-[2-(5,6-dimethoxy-3-methyl-1,4-benzoquinon-2-ylmethyl)phenyl]propionyl]thiomorpholine]", "IC50": 42}
    ]},
    {"system": "NF-κB", "test": "NF-κB luciferase reporter assay in A549/NF-κBLuc cells", "assay_type": "cell-based, human", "details": "Homo sapiens; A549/NF-κBLuc, TNF-α (500 ng/ml) for 4 hours, luciferase activity; read-out: IC50 (μM) TNF stimulation", "experimental": "as §1, §2", "units": {"IC50": "µM"}, "values": [
      {"compound": "COC1=C(OC)C(=O)C(Cc2ccc(CCC(=O)NC(C)C)cc2)=C(C)C1=O", "note": "[Prod. Ex. 9, N-[3-[4-(5,6-Dimethoxy-3-methyl-1,4-benzoquinon-2-ylmethyl)phenyl]propionyl]isopropylamine]", "IC50": 4}
    ]}
  ]
}
